Like-named read-outs stand apart in the source and are kept apart here.

In this assay the target is β-galactosidase (Escherichia coli, UniProt P00722). The experiment in a line: Kinetics of β-galactosidase with p-NPBG, with and without diethanolamine. Format: biochemical. Particulars: for Km: read-out: Michaelis constant (Km) of β-galactosidase for p-NPBG. As to the method: β-galactosidase has a pH optimum of 7.4 for p-nitrophenyl-β-D-galactoside (p-NPBG), although in a single assay format using normal substrate concentrations (up to approximately 5 mM), the pH can be raised to 8.6 with only a slight loss (approximately 20%) of activity. […] We have also found, however, that by increasing the concentration of p-NPBG at pH 8.6, even in the presence of about 1M diethanolamine, substantial activity of β-galactosidase can be achieved. Substantial activity of β-galactosidase is also obtained if the same reaction medium is used but with p-NPBG replaced by o-NPBG.
Chain of β-galactosidase (P00722 2-1024): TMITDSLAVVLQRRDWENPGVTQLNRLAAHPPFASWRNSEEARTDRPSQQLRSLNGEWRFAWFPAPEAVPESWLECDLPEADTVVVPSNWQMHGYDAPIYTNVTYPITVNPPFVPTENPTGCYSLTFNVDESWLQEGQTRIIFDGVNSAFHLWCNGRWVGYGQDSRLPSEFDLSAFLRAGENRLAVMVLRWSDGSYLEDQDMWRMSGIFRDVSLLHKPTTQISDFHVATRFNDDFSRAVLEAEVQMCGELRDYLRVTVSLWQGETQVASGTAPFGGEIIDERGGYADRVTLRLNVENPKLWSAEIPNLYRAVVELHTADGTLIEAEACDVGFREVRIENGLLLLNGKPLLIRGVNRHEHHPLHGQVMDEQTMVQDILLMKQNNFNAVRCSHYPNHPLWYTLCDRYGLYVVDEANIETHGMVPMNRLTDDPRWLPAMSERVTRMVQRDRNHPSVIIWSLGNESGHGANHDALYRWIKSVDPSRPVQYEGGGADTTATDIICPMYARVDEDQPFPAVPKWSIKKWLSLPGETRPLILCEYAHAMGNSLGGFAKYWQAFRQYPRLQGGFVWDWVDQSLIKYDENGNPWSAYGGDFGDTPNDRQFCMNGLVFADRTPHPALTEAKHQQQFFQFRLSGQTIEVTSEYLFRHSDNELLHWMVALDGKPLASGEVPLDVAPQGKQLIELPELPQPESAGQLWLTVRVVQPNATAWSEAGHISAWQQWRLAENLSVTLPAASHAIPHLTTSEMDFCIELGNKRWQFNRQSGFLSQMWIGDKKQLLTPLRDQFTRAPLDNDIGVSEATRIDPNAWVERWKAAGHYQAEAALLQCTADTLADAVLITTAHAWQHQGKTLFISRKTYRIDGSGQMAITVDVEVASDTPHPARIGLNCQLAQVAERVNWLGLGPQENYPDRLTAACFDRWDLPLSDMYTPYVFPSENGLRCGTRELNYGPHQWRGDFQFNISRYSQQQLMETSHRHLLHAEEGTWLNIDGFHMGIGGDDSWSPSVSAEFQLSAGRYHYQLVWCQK

Take `OCCNCCO` [diethanolamine]: the “activity of β-galactosidase (inhibition by diethanolamine)” value (about 1M diethanolamine, pH 8.6, p-NPBG at normal substrate concentrations (up to approximately 5 mM)) is “almost totally abolished”.
As a reminder, the Km is the concentration of substrate that gives half-maximal velocity. `O=[N+]([O-])c1ccc(O[C@@H]2O[C@H](CO)[C@H](O)[C@H](O)[C@H]2O)cc1` [p-NPBG, p-nitrophenyl-β-D-galactoside]: the Km is, setting by setting: (in the presence of 1M diethanolamine (competitive inhibition)) 21 mM; (without diethanolamine) 0.066 mM.

(Values after US5108896A, “Simultaneous immunoassay of two analytes using dual enzyme labelled antibodies” (priority 1986, dated 1992).)
